# Experimental data reported in patent publication US20050118287A1, “Use of a vanilloid as an anti-snoring element” (LMD, priority 2002, published 2005).
# System: snoring
# Assay: Activity of the shogaol on snoring in a panel of men and women
# Type: in vivo
# Conditions: daily doses corresponding to 20 mg of shogaol
# Protocol: Daily doses corresponding to 20 mg of shogaol taken in the form of an extract according to example 1 or 2 or of pure shogaol according to example 3 were administered to a panel of men and women. The effects manifest themselves after 48 hours of treatment and persist for 48 hours after stopping the latter. […] Without being bound by theory, it appears that the effect of this molecule and of other vanilloids should be linked to their involvement in emission by certain nociceptive neurons of a neurotransmitter, substance P.
substance,measurement,setting,value
shogaol,persistence of the effects after stopping treatment,,48 h
same,time of treatment after which the effects manifest themselves,,48 h
same,effect on snoring in the user,taken as extract according to example 1 or 2 or pure shogaol according to example 3,considerably reduces snoring
